# From ChEMBL document CHEMBL3885881, “DrugMatrix”
# Organism: Rattus norvegicus
# Experiment: DrugMatrix - Regimen: Daily Repeat
# Type: toxicity, organism-based, Sprague-Dawley
# Design: regimen Daily Repeat, gender Male, age 6-8 weeks
# Conditions: in vivo, po, route oral GAVAGE, […]; for ABSOLUTE BASOPHIL / ABSOLUTE EOSINOPHIL / ABSOLUTE LYMPHOCYTE / ABSOLUTE MONOCYTE / ABSOLUTE SEGMENTED NEUTROPHIL / BASOPHIL / EOSINOPHIL / ERYTHROCYTE COUNT / HEMATOCRIT / HEMOGLOBIN / LEUKOCYTE COUNT / LYMPHOCYTE / MEAN CORPUSCULAR HEMOGLOBIN / MEAN CORPUSCULAR HEMOGLOBIN CONCENTRATION / MEAN CORPUSCULAR VOLUME / MONOCYTE / NEUTROPHIL / NUCLEATED RED BLOOD CELLS / PLATELET COUNT: tissue Blood; for ALANINE AMINOTRANSFERASE / ALBUMIN / ALKALINE PHOSPHATASE / ASPARTATE AMINOTRANSFERASE / BLOOD UREA NITROGEN / CARBON DIOXIDE / CHLORIDE / CHOLESTEROL / CREATINE PHOSPHOKINASE / CREATININE / GLUCOSE / LACTATE DEHYDROGENASE / LIPASE / PHOSPHORUS / POTASSIUM / SODIUM / TOTAL BILIRUBIN / TOTAL PROTEIN / URIC ACID: tissue Plasma
# [1] = 24 mg/kg, 72 h, dose level Low, time 3 day
# [2] = 24 mg/kg, 120 h, dose level Low, time 5 day
# [3] = 770 mg/kg, 72 h, dose level High, time 3 day
# [4] = 770 mg/kg, 120 h, dose level High, time 5 day
smiles,measurement,setting,value
COc1c(N2CCNC(C)C2)c(F)cc2c(=O)c(C(=O)O)cn(C3CC3)c12 (configuration not stated) [GATIFLOXACIN],ABSOLUTE BASOPHIL,[1],0 CELLS/uL
same,ABSOLUTE EOSINOPHIL,[1],38.67 CELLS/uL
same,ABSOLUTE LYMPHOCYTE,[1],12036 CELLS/uL
same,ABSOLUTE MONOCYTE,[1],222.67 CELLS/uL
same,ABSOLUTE SEGMENTED NEUTROPHIL,[1],769.33 CELLS/uL
same,BASOPHIL,[1],0%
same,EOSINOPHIL,[1],0.33%
same,ERYTHROCYTE COUNT,[1],5.26 x10E6/uL
same,HEMATOCRIT,[1],34.07%
same,HEMOGLOBIN,[1],13.73 G/DL
same,LEUKOCYTE COUNT,[1],13.07 x10E3/uL
same,LYMPHOCYTE,[1],92%
same,MEAN CORPUSCULAR HEMOGLOBIN,[1],26.17 pg
same,MEAN CORPUSCULAR HEMOGLOBIN CONCENTRATION,[1],40.3 G/DL
same,MEAN CORPUSCULAR VOLUME,[1],64.87 fL
same,MONOCYTE,[1],1.67%
same,NEUTROPHIL,[1],6%
same,NUCLEATED RED BLOOD CELLS,[1],0 /100WBC
same,PLATELET COUNT,[1],1216.33 x10E3/uL
same,ALANINE AMINOTRANSFERASE,[1],96.67 u/L
same,ALBUMIN,[1],4.1 G/DL
same,ALKALINE PHOSPHATASE,[1],435.33 u/L
same,ASPARTATE AMINOTRANSFERASE,[1],106.67 u/L
same,BLOOD UREA NITROGEN,[1],15 mg/dL
same,CARBON DIOXIDE,[1],24.67 mmol/L
same,CHLORIDE,[1],100.67 MEQ/L
same,CHOLESTEROL,[1],75 mg/dL
same,CREATINE PHOSPHOKINASE,[1],818.33 u/L
same,CREATININE,[1],0.2 mg/dL
same,GLUCOSE,[1],183 mg/dL
same,LACTATE DEHYDROGENASE,[1],221.67 u/L
same,LIPASE,[1],10.33 u/L
same,PHOSPHORUS,[1],13.13 mg/dL
same,POTASSIUM,[1],6.33 MEQ/L
same,SODIUM,[1],143.27 MEQ/L
same,TOTAL BILIRUBIN,[1],0.17 mg/dL
same,TOTAL PROTEIN,[1],5.77 G/DL
same,URIC ACID,[1],1.7 mg/dL
same,ABSOLUTE BASOPHIL,[2],0 CELLS/uL
same,ABSOLUTE EOSINOPHIL,[2],0 CELLS/uL
same,ABSOLUTE LYMPHOCYTE,[2],16055.67 CELLS/uL
same,ABSOLUTE MONOCYTE,[2],361 CELLS/uL
same,ABSOLUTE SEGMENTED NEUTROPHIL,[2],1450 CELLS/uL
same,BASOPHIL,[2],0%
same,EOSINOPHIL,[2],0%
same,ERYTHROCYTE COUNT,[2],5.93 x10E6/uL
same,HEMATOCRIT,[2],37%
same,HEMOGLOBIN,[2],14.63 G/DL
same,LEUKOCYTE COUNT,[2],17.87 x10E3/uL
same,LYMPHOCYTE,[2],90%
same,MEAN CORPUSCULAR HEMOGLOBIN,[2],24.73 pg
same,MEAN CORPUSCULAR HEMOGLOBIN CONCENTRATION,[2],39.57 G/DL
same,MEAN CORPUSCULAR VOLUME,[2],62.47 fL
same,MONOCYTE,[2],2%
same,NEUTROPHIL,[2],8%
same,NUCLEATED RED BLOOD CELLS,[2],0 /100WBC
same,PLATELET COUNT,[2],1096 x10E3/uL
same,ALANINE AMINOTRANSFERASE,[2],69 u/L
same,ALBUMIN,[2],4.2 G/DL
same,ALKALINE PHOSPHATASE,[2],431.33 u/L
same,ASPARTATE AMINOTRANSFERASE,[2],90.67 u/L
same,BLOOD UREA NITROGEN,[2],13 mg/dL
same,CARBON DIOXIDE,[2],27.67 mmol/L
same,CHLORIDE,[2],100.67 MEQ/L
same,CHOLESTEROL,[2],70.67 mg/dL
same,CREATINE PHOSPHOKINASE,[2],342 u/L
same,CREATININE,[2],0.2 mg/dL
same,GLUCOSE,[2],149.33 mg/dL
same,LACTATE DEHYDROGENASE,[2],413 u/L
same,LIPASE,[2],10.33 u/L
same,PHOSPHORUS,[2],11.8 mg/dL
same,POTASSIUM,[2],5.99 MEQ/L
same,SODIUM,[2],145.2 MEQ/L
same,TOTAL BILIRUBIN,[2],0.2 mg/dL
same,TOTAL PROTEIN,[2],5.97 G/DL
same,URIC ACID,[2],1.43 mg/dL
same,ABSOLUTE BASOPHIL,[3],0 CELLS/uL
same,ABSOLUTE EOSINOPHIL,[3],0 CELLS/uL
same,ABSOLUTE LYMPHOCYTE,[3],12067.33 CELLS/uL
same,ABSOLUTE MONOCYTE,[3],215.33 CELLS/uL
same,ABSOLUTE SEGMENTED NEUTROPHIL,[3],450.67 CELLS/uL
same,BASOPHIL,[3],0%
same,EOSINOPHIL,[3],0%
same,ERYTHROCYTE COUNT,[3],6.18 x10E6/uL
same,HEMATOCRIT,[3],38.03%
same,HEMOGLOBIN,[3],15.1 G/DL
same,LEUKOCYTE COUNT,[3],12.73 x10E3/uL
same,LYMPHOCYTE,[3],94.67%
same,MEAN CORPUSCULAR HEMOGLOBIN,[3],24.5 pg
same,MEAN CORPUSCULAR HEMOGLOBIN CONCENTRATION,[3],39.83 G/DL
same,MEAN CORPUSCULAR VOLUME,[3],61.5 fL
same,MONOCYTE,[3],1.67%
same,NEUTROPHIL,[3],3.67%
same,NUCLEATED RED BLOOD CELLS,[3],0 /100WBC
same,PLATELET COUNT,[3],1233.67 x10E3/uL
same,ALANINE AMINOTRANSFERASE,[3],57 u/L
same,ALBUMIN,[3],4.07 G/DL
same,ALKALINE PHOSPHATASE,[3],327 u/L
same,ASPARTATE AMINOTRANSFERASE,[3],64.33 u/L
same,BLOOD UREA NITROGEN,[3],11 mg/dL
same,CARBON DIOXIDE,[3],24.33 mmol/L
same,CHLORIDE,[3],103.67 MEQ/L
same,CHOLESTEROL,[3],37 mg/dL
same,CREATINE PHOSPHOKINASE,[3],603.67 u/L
same,CREATININE,[3],0.29 mg/dL
same,GLUCOSE,[3],368.33 mg/dL
same,LACTATE DEHYDROGENASE,[3],191.67 u/L
same,LIPASE,[3],8.67 u/L
same,PHOSPHORUS,[3],12.53 mg/dL
same,POTASSIUM,[3],6.44 MEQ/L
same,SODIUM,[3],143.43 MEQ/L
same,TOTAL BILIRUBIN,[3],0.13 mg/dL
same,TOTAL PROTEIN,[3],5.6 G/DL
same,URIC ACID,[3],2.13 mg/dL
same,ABSOLUTE BASOPHIL,[4],0 CELLS/uL
same,ABSOLUTE EOSINOPHIL,[4],57.33 CELLS/uL
same,ABSOLUTE LYMPHOCYTE,[4],15898 CELLS/uL
same,ABSOLUTE MONOCYTE,[4],55 CELLS/uL
same,ABSOLUTE SEGMENTED NEUTROPHIL,[4],1089.67 CELLS/uL
same,BASOPHIL,[4],0%
same,EOSINOPHIL,[4],0.33%
same,ERYTHROCYTE COUNT,[4],6.68 x10E6/uL
same,HEMATOCRIT,[4],41.6%
same,HEMOGLOBIN,[4],16.5 G/DL
same,LEUKOCYTE COUNT,[4],17.1 x10E3/uL
same,LYMPHOCYTE,[4],93%
same,MEAN CORPUSCULAR HEMOGLOBIN,[4],24.7 pg
same,MEAN CORPUSCULAR HEMOGLOBIN CONCENTRATION,[4],39.67 G/DL
same,MEAN CORPUSCULAR VOLUME,[4],62.27 fL
same,MONOCYTE,[4],0.33%
same,NEUTROPHIL,[4],6.33%
same,NUCLEATED RED BLOOD CELLS,[4],0 /100WBC
same,PLATELET COUNT,[4],1161 x10E3/uL
same,ALANINE AMINOTRANSFERASE,[4],71 u/L
same,ALBUMIN,[4],4 G/DL
same,ALKALINE PHOSPHATASE,[4],300.33 u/L
same,ASPARTATE AMINOTRANSFERASE,[4],74.33 u/L
same,BLOOD UREA NITROGEN,[4],12.33 mg/dL
same,CARBON DIOXIDE,[4],26.67 mmol/L
same,CHLORIDE,[4],99.67 MEQ/L
same,CHOLESTEROL,[4],30.67 mg/dL
same,CREATINE PHOSPHOKINASE,[4],501.33 u/L
same,CREATININE,[4],0.29 mg/dL
same,GLUCOSE,[4],338.33 mg/dL
same,LACTATE DEHYDROGENASE,[4],199 u/L
same,LIPASE,[4],8.67 u/L
same,PHOSPHORUS,[4],11.53 mg/dL
same,POTASSIUM,[4],6.37 MEQ/L
same,SODIUM,[4],141.3 MEQ/L
same,TOTAL BILIRUBIN,[4],0.2 mg/dL
same,TOTAL PROTEIN,[4],5.53 G/DL
same,URIC ACID,[4],2.07 mg/dL
